The nature of data set [1]: In vitro metabolic stability in cryopreserved hepatocytes (human). It counts as in vitro ADME. Particulars: 0.5×10^6 cells/mL, 37° C. An excerpt: (§1) 283, no. 1, pp. 46-58 (1997).
The nature of data set [2]: In vitro metabolic stability in cryopreserved hepatocytes (rat). It counts as in vitro ADME. Particulars: Sprague-Dawley Rat hepatocytes, 0.5×10^6 cells/mL, 37° C.
Source text: as §1

A short description of data set [3]: Clinical 7-day study, serum LDL. It counts as in vivo, human. The note with it: healthy subjects, 25, 75, or 150 mg QD for 7 days. The text has this: (§2) Serum levels of Compound I in the subjects were periodically measured.
Serum levels of low-density lipoprotein (LDL) in the subjects were periodically measured.

The nature of data set [4]: Tissue distribution of radiolabeled (14C) Compound I after oral dose. The note with it: Long-Evans rats, oral 5 mg/kg (100 μCi/kg), up to 168 hours. The data set is classed as in vivo.
Data set [5] relates to 7-alpha-hydroxy-4-cholesten-3-one (7α-C4). Briefly: Clinical 7-day study, serum 7α-C4 suppression. The data set is classed as in vivo, human. The note with it: healthy subjects; for maximum suppression of serum 7α-C4 levels (reduction): Day 7, six hours after dosing. How it is done: (§3) Second Study. […] 10-14, 2019.
Serum levels of 7-alpha-hydroxy-4-cholesten-3-one (7α-C4) in the subjects were periodically measured. FIGS. 16A and 16B show changes of mean serum levels of 7α-C4 from the pre-dose baseline in different dosing groups on Day 1 and Day 7, respectively. […] On Day 7, maximum suppression of serum 7α-C4 levels was observed six hours after dosing corresponding to a reduction of 74%, 82%, and 91% in the 25, 75, and 150 mg dosing groups, respectively.

Data set [6] in a line: Clinical 7-day study, safety and pruritus. It counts as in vivo, human. The note with it: healthy volunteers. How it is done:
as §3
Safety was assessed during dosing and for 10 (±1) days after dosing.

Data set [7] relates to 7-alpha-hydroxy-4-cholesten-3-one (7α-C4). Kind of data set: PD profile (7α-C4 reduction) after oral dosing in monkeys. The data set is classed as in vivo. The note with it: cynomolgus monkeys, oral 1 mg/kg for 7 consecutive days. How it is done: (§4) The pharmacodynamics were measured as a function of 7-alpha-hydroxy-4-cholesten-3-one (7α-C4) reduction (FIG. 4), as quantified by LC-MS/MS. Pharmacokinetics data is presented in Table 3, and were determined by non-compartmental analysis.

Data set [8] has as its system differentially expressed genes and pathways in liver. Briefly: RNAseq of liver after single oral dose. The note with it: mice liver, 6 hours; for number of differentially expressed genes modulated vs vehicle: fold change≥1.5, q-value<0.05; for number of global pathways enriched: p<0.05.
Method: For RNAseq analysis, mRNA was extracted from total liver and sequenced using standard Illumina library preparation and sequencing protocols. Differentially expressed genes (DEG) were determined using RSEM and edgeR software packages and analyzed using Advaita Bio's iPathwayGuide software.
A short description of data set [9]: In vitro metabolic stability in cryopreserved hepatocytes (dog). It counts as in vitro ADME. Particulars: Beagle Dog hepatocytes, 0.5×10^6 cells/mL, 37° C.
Source text: as §1

Data set [10] can be described thus: Pharmacokinetics assay, IV and oral, monkey. The data set is classed as in vivo, cynomolgus monkeys. The note with it: plasma; Cynomolgus Monkey, oral 5 mg/kg, IV 0.3 mg/kg. The text has this:
Results are shown in FIG. 1A (IV administration) and FIG. 1B (oral administration), and in Table 2. […] Smaller Vdss in monkeys is correlated with higher plasma protein binding.

Data set [11] relates to FXR-regulated gene expression in liver and ileum. Kind of data set: RT-qPCR of FXR-regulated gene expression in liver and ileum after single oral dose. The data set is classed as in vivo. Particulars: mice, single oral dose 10 mg/kg, 6 hours after dose. An excerpt:
For RT-qPCR, gene-specific primers were used to quantitate FXR-regulated gene expression in liver and ileum using the 2-ddCT method. Results are shown in FIG. 6 (data presented as mean±SEM; **** indicates p<0.0001 and * indicates p<0.05 versus vehicle, with statistics determined by one-way ANOVA followed by Tukey).
In general terms: In qPCR the cycle at which signal appears reflects the starting amount.

The nature of data set [12]: PK profile after oral dosing in monkeys. It counts as in vivo. The note with it: cynomolgus monkeys, oral 1 mg/kg for 7 consecutive days. How it is done: as §4
Data set [13] in a line: In vitro metabolic stability in cryopreserved hepatocytes (monkey). The note with it: Cynomolgus Monkey hepatocytes, 0.5×10^6 cells/mL, 37° C. It counts as in vitro ADME.
Source text: as §1

Data set [14] concerns NASH induced by a high fat diet in combination with CCl4. Briefly: Mouse model of NASH (high fat diet in combination with CCl4). The data set is classed as in vivo, C57/BL6J mice. The note with it: 28 days.
Method: Hematoxylin & Eosin (H&E) and Sirius Red histological staining of liver tissue was used to quantitate NAFLD activity score (NAS), steatosis, ballooning, inflammation and fibrosis.
NAS is calculated based upon liver steatosis, inflammation, and ballooning and was determined by analysis of liver tissue histology using H&E stain. Specifically, inflammation score was calculated based upon H&E staining: Score 0, none; 1, <2 foci per 200X field; 2, 2-4 foci per 200X field; 3, >4 foci per 200X field. […] Hepatocellular ballooning is a form of liver cell injury associated with cell swelling and is also measured by H&E stained liver sections. The ballooning score is calculated as follows: 0-no hepatocyte ballooning; 1-few ballooning hepatocytes; 2-many hepatocytes with prominent ballooning.
Liver fibrosis was quantified by histological analysis of the percentage of Sirius Red-positive liver sections.
For data set [15], the system named is FXR-regulated, inflammatory and fibrosis gene expression in the liver. Briefly: Liver gene expression in NASH mouse model (RT-qPCR, RNA-seq). It counts as in vivo, C57/BL6J mice. Particulars: 10, 30, or 100 mg/kg daily oral, 28 days.
Data set [16] can be described thus: In vitro metabolic stability in cryopreserved hepatocytes (mouse). The data set is classed as in vitro ADME. The note with it: 0.5×10^6 cells/mL, 37° C.
Source text: as §1

The nature of data set [17]: Clinical 7-day study, serum exposure of Compound I. The data set is classed as in vivo, human. Particulars: healthy subjects, each 24-hour dosing period, all dosed groups.
Source text: as §3, §2

The subject of the next data set is FGF-19. Kind of data set: Clinical 7-day study, serum FGF-19. The data set is classed as in vivo, human. Particulars: healthy subjects, four hours after dosing on Day 7; dosing groups not assigned in the text.
Source text: as §2
Serum levels of FGF-19 in the subjects were periodically measured. FIGS. 17A and 17B show changes of mean serum levels of FGF-19 from the pre-dose baseline in different dosing groups on Day 1 and Day 7, respectively.

The conditions of data set [18]: longer term studies; cited from earlier work.
[19] abbreviates: 10, 30, and 100 mg/kg daily oral.
[20] abbreviates: 10, 30, or 100 mg/kg daily oral.

Where “and” joins values, the source holds several entries; their conditions need not be identical. Identical values can stand only once.

For `Cn1cc(C(=O)O)c2ccc(N3CCC(OCc4c(-c5c(Cl)cccc5Cl)noc4C4CC4)CC3)cc21` [Compound I, 6-{4-[5-cyclopropyl-3-(2,6-dichloro-phenyl)-isoxazol-4-ylmethoxy]-piperidin-1-yl}-1-methyl-1H-indole-3-carboxylic acid], the half-life – broadly, the time needed for the level to fall by half in the phase considered – at 1 µM in [1] amounted to 1.4 ± 0.108 h; in [2], 2.18 ± 0.0685 h; in data set [9], 2.1 ± 0.258 h; in data set [13], 1.06 ± 0.013 h; in data set [16], 0.727 ± 0.0472 h. In data set [3], the “serum LDL changes above baseline” value is listed as “minimal”. Also, the “tissues with the most radioactive material” value in data set [4] is “Liver, small intestine, and cecum”. Further, the “maximum suppression of serum 7α-C4 levels (reduction)” value in [5] (25 mg QD) was found to be 74%; in data set [5] (75 mg QD), 82%; in [5] (150 mg QD) it was 91%. For the same compound, the “suppression of serum 7α-C4 levels after a single dose” value in data set [5] (Day 1, all dosed groups (25, 75, 150 mg)) is reported as “partial suppression”. Moreover, in data set [6] (all doses (25, 75, 150 mg QD for 7 days)), the reports of pruritus entry is recorded as “no reports of pruritus”. For the same compound, in data set [6] (all doses, during dosing and for 10 (±1) days after), the safety and tolerability entry is “safe and well tolerated”. Besides, the “suppression of the pharmacodynamics biomarker 7α-C4” value in [7] is listed as “sustained suppression”. Further, the “number of differentially expressed genes modulated vs vehicle” value in [8] (single oral 10 mg/kg) is given as 500 genes. In addition, the “number of global pathways enriched” value in [8] (single oral 10 mg/kg) was 32 pathways. The bioavailability – broadly, the share of a dose that reaches the circulation, judged against a reference dose that is usually intravenous – in [10] is 18%. In addition, in data set [11], the “induction of FXR-specific genes (liver SHP1, liver OSTb, ileum SHP1, ileum FGF15)” value is listed as “preferentially induces FXR-specific genes in the liver”. For the same compound, the “plasma exposure on day 1 and day 7” value in data set [12] was “comparable”. Moreover, the “ballooning score compared to untreated NASH mice” value in data set [14] (setting [19]) is recorded as “significantly reduced”. In addition, the “inflammation score compared to untreated NASH mice” value in [14] (setting [19]) is reported as “significantly reduced”. The “steatosis score compared to untreated NASH mice” value in data set [14] (setting [19]) was “significantly reduced”. Moreover, in data set [14] (setting [20]), the “NAFLD Activity Score (NAS) compared to untreated NASH mice” value is recorded as “significantly lower”. Moreover, in [14] (setting [20]), the “liver fibrosis (Sirius Red-positive area) compared to untreated NASH control” value is “statistically significant reduced fibrosis”. The “collagen, type 1, alpha 1 expression in the liver compared to control NASH mice” value in data set [15] is “decreased”. Moreover, in data set [17], the “mean serum levels of Compound I versus its EC50” value is given as “generally did not exceed the EC50”. For the same compound, in the data set with FGF-19, the “maximum increases from baseline in serum FGF 19 levels” value was 718% and 486% and 454%.

For the compound `O=C(O)c1cc(F)c2nc(N3[C@@H]4CC[C@H]3C[C@@H](OCc3c(-c5ccccc5OC(F)(F)F)noc3C3CC3)C4)sc2c1` [tropifexor], in data set [18], the pruritus result is “known to result in pruritus”.

On to `O=C(O)c1ccnc(N2CC(O)(c3ccc(OCc4c(-c5c(Cl)cccc5Cl)noc4C4CC4)cc3Cl)C2)c1` [cilofexor], for which the pruritus result in data set [18] is given as “known to result in pruritus”.

On to `CC[C@H]1[C@@H](O)[C@@H]2[C@H](CC[C@]3(C)[C@@H]([C@H](C)CCC(=O)O)CC[C@@H]23)[C@@]2(C)CC[C@@H](O)C[C@@H]12` [OCA, obeticholic acid, reference compound], for which, in data set [8] (single oral 30 mg/kg), the “number of differentially expressed genes modulated vs vehicle” value stood at 44 genes and the “number of global pathways enriched” value is reported as 6 pathways. For the same compound, the pruritus result in data set [18] is “known to result in pruritus”.

These data come from patent US20220387414A1, “TREATING LIVER DISORDERS” (Terns Pharmaceuticals Inc., priority 2019, published 2022).
